According to publication PMC10675077, “Antimicrobial Properties of New Polyamines Conjugated with Oxygen-Containing Aromatic Functional Groups” (Molecules, 2023):
Converted amounts (≈) assume the structure as drawn.

How the values were obtained:
[1] = tested on: yeast cells; assay: Intracellular ATP by luciferase bioluminescence, yeast; assay type: cell-based, Saccharomyces cerevisiae; details: overnight treatment
Procedure: The procedure described by Lehtinen et al. was followed, with the modifications indicated herein. In the case of bacteria, 1.5 OD600 units were incubated overnight in 1 mL of final volume with 5-fold MIC concentrations. Then, the cells were collected, washed 3 times in 20 mM phosphate buffer pH 7.4, and lysed in 200 μL of LS1 (50 mM of glucose, 25 mM of Tris-HCl pH 8.0, and 10 mM of EDTA pH 8.0) containing 5 mg/mL of lysozyme and the same volume of glass beads (425–600 μm), by stirring 10 times for 15 s each. Then, the solution was centrifuged at 14,800× g for 15 min, and the supernatant was used for a luciferase assay. For this purpose, in each well of a microtiter plate, 100 μL of luciferase assay buffer (0.015 M of MgSO4, 0.015 M of KH2PO4 pH 8, 0.004 M of EGTA pH 8, and 2 mM of DTT) was added together to a 50 μL of 0.3 mg/mL luciferin solution in 0.01% (w/v) Triton X-100 and 50 μL of the cell extract. Finally, 15 μL of a 67 μg/mL aqueous solution of luciferase was added. Light emission was immediately detected using a Luminoskan Ascent instrument (Thermo Scientific, Waltham, MA, USA) for 1 s per well. Glass beads, lysozyme, luciferin, and luciferase were purchased from Sigma-Aldrich.
[…] Then, cells were collected and washed as above and resuspended in 500 μL of LS2 (140 mM of NaCl, 1.5 mM of MgCl2, 10 mM of Tris-HCl pH 8.0, and 0.5% (v/v) NP40). Cells were lysed in the presence of 1 volume of glass beads as described above. The next steps were carried out as in the case of bacterial samples.
Experiments were carried out at least in triplicate in all cases, and control drugs and SDS (0.1% (w/v) of the final concentration) were also included.

[2] = tested on: Saccharomyces cerevisiae BY4741/YEplac195; assay: microbe, parasite or virus in culture; assay type: cell-based; details: Saccharomyces cerevisiae; 24 h, 30 °C; average of at least three experiments; read-out: MIC, Yeast, BY4741/ YEplac195
Text: (§1) The microorganisms used for the susceptibility tests were the bacteria Escherichia coli JM101 and Staphylococcus aureus BHI, and the yeast Saccharomyces cerevisiae strains BY4741 (MAT a his3Δ1 leu2Δ0 met15Δ0 ura3Δ0 (EUROSCARF)) carrying YEplac195 (from EUROSCARF) or YEPlac195-PDR5 (provided by Ayse Banu Demir, Izmir University of Economics, Turkey) plasmids.
(§2) Bacterial strains were usually maintained and grown in an LB medium (0.5% (w/v) yeast extract, 1% (w/v) bactotryptone, and 1% (w/v) NaCl) at 37 °C. For MIC (minimal inhibitory concentration) and MMC (minimal microbicidal concentration) assays, and for the determination of synergies, overnight growth was carried out in 2% (w/v) bactopeptone (BP), and then the cultures were diluted and incubated for several hours in 2% (w/v) BP for ensuring logarithmic growth. Yeast strains were grown in an SC-ura medium (0.17% (w/v) yeast nitrogen base without amino acids and ammonium sulphate, 0.2% (w/v) drop-out without uracil, 0.5% (w/v) (NH4)2SO4, and 2% (w/v) glucose) at 30 °C. Liquid cultures were incubated with shaking (200 rpm). Solid media also contained 2% (w/v) agar.
(§3) The determination of the MIC for yeast strains was carried out following a similar procedure to that of the polyamines and antifungal reference agents: Serial dilutions of each one in phosphate buffer (20 mM, pH 7.4, 0.5 mL) were prepared and mixed with a suspension of yeast cells (OD600 0.04 in SC-ura 2X (VWR, Atlanta, GA, USA), 0.5 mL). […] Experiments were carried out at least three times in all cases.

[3] = tested on: Saccharomyces cerevisiae BY4741/YEplac195-PDR5; assay: microbe, parasite or virus in culture; assay type: cell-based; details: Saccharomyces cerevisiae, 24 h, read-out: MIC, Yeast, BY4741/ PDR5
Text: as §1, §2, §3

[4] = tested on: E. coli JM101; assay: Minimal bactericidal concentration, E. coli; assay type: cell-based, Escherichia coli; details: Escherichia coli, JM101; overnight incubation, plating on LB; bacteriostatic if growth at 4 times the MIC
Procedure: (§4) Once the MIC was known, the samples were prepared as described in the previous section with polyamine concentrations corresponding to the MIC and half, double, and four times its value. After overnight incubation with the microorganisms, 30 μL of a ten-fold dilution of each one was spread in LB (in the case of bacterial strains) or SC-ura (for yeast strains) plates. They were incubated for 20 h at 37 °C (bacteria) or 48 h at 30 °C (yeasts), and the level of growth was determined. […] Experiments were carried out at least three times.

[5] = Cytotoxicity, flow cytometry viability assay with propidium iodide; assay type: cell-based, human; details: human, Jurkat cells (human lymphocytic leukaemia, ATCC TIB-152), 24 h treatment, average of three experiments, read-out: IC50, cytotoxicity on the human Jurkat cell line
Procedure: The cytotoxicity of the compounds was assessed via flow cytometry with a viability assay using propidium iodide (PI), a DNA-binding fluorescent probe not permeant to live cells, which is commonly used to detect dead cells in a population. The human lymphocytic leukaemia Jurkat cell line (ATCC TIB-152) was obtained from the American Type Cell Culture (Sigma-Aldrich) and grown in suspension in an RPMI 1640 medium (Thermo Fisher Scientific, Waltham, MA, USA) supplemented with L-glutamine, antibiotics, and 10% heat-inactivated foetal calf serum (FCS, Thermo Fisher Scientific, Waltham, MA, USA). For the viability assay, cells were seeded in plastic 96-well plates at […] in an RPMI 1640 medium supplemented with 5% FCS. The cells were treated for 24 h with a range of concentrations of the test compounds or with the same volume of phosphate buffer (PBS) in control wells. After incubation, cell suspensions were washed, resuspended in 400 μL fresh medium, and incubated for 5 min at room temperature in the dark with 3.75 μM PI (Sigma-Aldrich). Cell viability was determined via flow cytometry using a Gallios flow cytometer (Beckman Coulter). PI fluorescence was excited with an argon-ion laser at 488 nm and collected through a 620/630 nm band-pass emission. Cellular events were discriminated from debris using forward scatter (FS) and side scatter (SS) signals. Cell aggregates were excluded from analysis based on FS-integral and FS-peak. The gates applied for population discrimination were set manually based on control samples. For each sample, 10,000 events were collected. For further analysis, the cytometric data were exported to Kaluza 2.1 software (Beckman Coulter, Brea, CA, USA). Dead cells were identified and quantified as PI-positive events. The cytotoxic potency of test compounds was quantified using their IC50 values, i.e., the compound concentration at which cell viability is inhibited by 50%, as calculated via curve fitting and determined with the correlation coefficient (R2) using GraphPad Prism 9.0 software. Experiments were carried out in triplicate.

[6] = tested on: Staphylococcus aureus BHI; assay: MIC, microdilution in culture medium, S. aureus; assay type: cell-based; details: Staphylococcus aureus; 20 h, 37 °C; average of at least three experiments; read-out: MIC, Bacteria, S. aureus BHI
Text: as §1, §2
(§5) For the analysis of the antimicrobial activity, the strategies and indications of Cushnie et al. were considered. The standardised method of microdilution in a culture medium was followed to determine the MIC [55]. In bacterial strains, serial dilutions of the compounds to be tested and the control antibiotics were prepared in phosphate buffer (20 mM, pH 7.4, 0.5 mL) and were mixed with a suspension of bacterial cells in a logarithmic growth phase (in 1% BP, 0.5 mL). The final OD600 of the whole solutions were 0.004 and 0.008 for E. coli and S. aureus cultures, respectively. After 20 h of incubation at 37 °C with shaking, the MIC was determined as the lowest concentration of each compound in which no visible bacterial growth was observed.

[7] = tested on: Escherichia coli JM101; assay: MIC, microdilution in culture medium, E. coli; assay type: cell-based; details: Escherichia coli, JM101; 20 h, 37 °C; average of at least three experiments; read-out: MIC, Bacteria, E. coli JM101
Text: as §1, §2, §5

[8] = tested on: Yeast (S. cerevisiae strains); assay: MIC, yeast (strain not specified); assay type: cell-based, Saccharomyces cerevisiae; details: Saccharomyces cerevisiae; yeast strain not specified (Tables 5 and 10); read-out: MIC Yeast
Procedure: as §3

[9] = Potentiometric titrations in water (protonation constants); assay type: physicochemical; details: for log β (cumulative protonation constant): calculated as log β = ∑j log KHjL; for n, average number of positive charges at pH 7.4: calculated from protonation constants
Procedure: The potentiometric titrations were carried out at 298.1 ± 0.1 K using NaCl 0.15 M as a supporting electrolyte. The experimental procedure (burette, potentiometer, cell, stirrer, microcomputer, etc.) has been fully described elsewhere. The acquisition of the EMF data was performed with the computer program PASAT [50]. The reference electrode was a Ag/AgCl electrode in a saturated KCl solution. The glass electrode was calibrated as a hydrogen-ion concentration probe via the titration of previously standardised amounts of HCl with CO2-free NaOH solutions and the equivalent point determined using the Gran method, which provides the standard potential, E^θ′, and the ionic product of water (pKw = 13.73(1)).
The computer program […] was used to calculate the protonation constants. The pH range investigated was 2.5–11.0, and the concentration of the ligands ranged from 5 × 10^−4 to 5 × 10^−[…]. The different titration curves for each system (at least two) were treated either as a single set or as separated curves without significant variations in the values of the stability constants. Finally, the sets of data were merged and treated simultaneously to give the final stability constants.

[10] = tested on: S. aureus BHI; assay: Minimal bactericidal concentration, S. aureus; assay type: cell-based, Staphylococcus aureus; details: Staphylococcus aureus; overnight incubation, plating on LB
Procedure: as §4

[11] = 298 K, 0.15 mol/dm^3 NaCl, error in last figure in parentheses

| SMILES | Intracellular ATP level relative to untreated cells ([1]; 50-fold the MIC) | MIC [2] [µg/mL] | MIC [3] [µg/mL] | MBC [4] [µg/mL] | IC50 at 24 h [5] [µg/mL] | MIC [6] [µg/mL] | MIC [7] [µg/mL] | MIC [8] [µg/mL] | Stepwise protonation constant (log K), H2L + H ⇄ H3L [9, 11] | Stepwise protonation constant (log K), L + H ⇄ HL [9, 11] | Stepwise protonation constant (log K), LH + H ⇄ H2L [9, 11] | log β (cumulative protonation constant) ([9]; 298 K, 0.15 mol/dm^3 NaCl) | n, average number of positive charges at pH 7.4 [9] | Stepwise protonation constant (log K), H3L + H ⇄ H4L [9, 11] | MBC [10] [µg/mL] | Intracellular ATP level relative to untreated cells ([1]; 30-fold the MIC) | Intracellular ATP level relative to untreated cells ([1]; 0.1% (w/v)) |
| --- | --- | --- | --- | --- | --- | --- | --- | --- | --- | --- | --- | --- | --- | --- | --- | --- | --- |
| C[C@@H]1[C@H](O)[C@@H](C)/C=C/C=C/C=C/C=C/C=C/C=C/C=C/[C@H](O[C@@H]2O[C@H](C)[C@@H](O)[C@H](N)[C@@H]2O)C[C@@H]2O[C@](O)(C[C@@H](O)C[C@@H](O)[C@H](O)CC[C@@H](O)C[C@@H](O)CC(=O)O[C@H]1C)C[C@H](O)[C@H]2C(=O)O [Amphotericin B, reference compound] | dramatic decrease | 1 | 1 |  |  |  |  |  |  |  |  |  |  |  |  |  |  |
| c1cc2c(cc1CNCCCCNCCCNCc1ccc3c(c1)OCO3)OCO2 [Compound 1a, N^1-(benzo[d][1,3]dioxol-5-ylmethyl)-N^4-(3-((benzo[d][1,3]dioxol-5-ylmethyl)amino)propyl)butane-1,4-diamine] |  | > 400 | > 400 | 100 (≈ 242 µM) | 11.4 (≈ 27.6 µM) | 150 | 50 | > 400 | 7.699 (2) | 10.433 (2) | 8.964 (2) | 27.09 | 2.7 |  |  |  |  |
| c1cc2c(cc1CNCCCNCCCCNCCCNCc1ccc3c(c1)OCO3)OCO2 [Compound 2a, N^1,N^1′-(butane-1,4-diyl)bis(N^3-(benzo[d][1,3]dioxol-5-ylmethyl)propane-1,3-diamine)] |  | 250 | 250 | 20 (≈ 42.5 µM) | 8.8 (≈ 18.7 µM) | 50 | 10 | 250 (≈ 531 µM) | 8.245 (7) | 10.81 (3) | 9.481 (8) | 35.94 | 3.4 | 7.41 (1) | 100 (≈ 212 µM) |  |  |
| c1cc2c(cc1CNCCN(CCNCc1ccc3c(c1)OCO3)CCNCc1ccc3c(c1)OCO3)OCO2 [Compound 3a, N^1-(benzo[d][1,3]dioxol-5-ylmethyl)-N^2,N^2-bis(2-((benzo[d][1,3]dioxol-5-ylmethyl)amino)ethyl)ethane-1,2-diamine] |  | > 400 | > 400 | 50 (≈ 91.1 µM) | 1.86 (≈ 3.39 µM) | 15 | 25 | > 400 | 6.93 (3) | 9.12 (2) | 8.35 (3) |  | 2.1 |  | 30 (≈ 54.7 µM) |  |  |
| OC(Cn1cncn1)(Cn1cncn1)c1ccc(F)cc1F [Fluconazole, reference compound] |  | 10 | 60 |  |  |  |  |  |  |  |  |  |  |  |  | very reduced |  |
| CCCCCCCCCCCCOS(=O)(=O)[O-].[Na+] [SDS] |  |  |  |  |  |  |  |  |  |  |  |  |  |  |  |  | 50–70% |
